Test results published in patent publication US20090298915A1, “TOPICAL DRUG DELIVERY” (priority 2006, published 2009).

Experiments:
[1] = system: S91 Cloudman murine melanoma cells; test: Pigmentation assay (melanin synthesis); assay type: cell-based; details: 5 days culture, 10^−8 M and 10^−6 M
Description: (§1) S91 Cloudman murine melanoma cells were cultured for 5 days in the presence or absence of αMSH compounds. All experiments were carried out in triplicate wells on three separate occasions. Following culture, cells were washed twice with PBS and then dissociated with cell dissociation solution (Sigma, UK). An aliquot of cells were counted using a haemocytometer, and the remaining cells pelleted by centrifugation prior to lysis of the pellet with 200 μl of 1M NaOH. Melanin concentrations were determined against a standard synthetic melanin dose range using a spectrophometric plate reader (emission 450-492 nm).

[2] = Ex vivo skin penetration, Franz diffusion chamber, mouse skin; assay type: in vitro ADME; details: fluorescein-labelled compounds, 10^−3 M, up to 3 hours
Excerpt: (§2) The penetration of the relevant compounds into mouse, pig and human skin was investigated using a Franz diffusion chamber system; this approach ensured a sealed system which prevented any leakage between the upper donor compartment and the lower receptor compartment. Circular full thickness skin samples (6 mm diameter) which had been cut with a punch biopsy blade were mounted into the diffusion chamber, with the stratum corneum facing upwards so that it was exposed to donor compartment, and with the receptor compartment filled with PBS. The compound under investigation was applied to the donor compartment so that it lay on the outer skin surface, and the chamber incubated at room temperature or at 37° C. for up to 3 hours. At the end of this incubation period, the remaining solution was removed from the upper compartment, and the skin washed three times with PBS. The skin was then bisected and half of it was snap frozen in liquid nitrogen for cryosectioning whereas the other half was fixed in 4% paraformaldehyde for 3 hours prior to paraffin blocking for cutting tissue sections. The skin sections were mounted on glass and visualised under fluorescent microscopy.
(§3) Penetration of αMSH into skin was examined using an ex-vivo mouse, pig and human skin model. […]

[3] = Ex vivo skin penetration, Franz diffusion chamber, pig skin; assay type: in vitro ADME; details: fluorescein-labelled compounds, 10^−3 M, up to 3 hours
Excerpt: as §2, §3

[4] = Ex vivo skin penetration, Franz diffusion chamber, human skin; assay type: in vitro ADME; details: fluorescein-labelled compounds, 10^−3 M, up to 3 hours
Excerpt: as §2, §3

[5] = system: B16F10 murine melanoma cells; test: Pigmentation assay in alphaMSH-stimulated B16F10 cells; assay type: cell-based; details: B16F10, 48 hours, αMSH 10^−10 M, compound 10^−5 M
Description: as §1
B16F10 murine melanoma cells were cultured for 48 hours in the presence or absence of αMSH (10^−10 M) with or without TyrPNA or TyrASO and separately with or without TyrPNA-PPL or TyrASO-PPL. Pigmentation was assessed as described above.

B16F10 cells = test: Transport into B16F10 cells, fluorescence and confocal microscopy; assay type: cell-based, murine; details: TyrPNA-PPL-fluo at 3×10^−5 M and at 10^−4 M
Description: Experiments to investigate the transport of each compound into cells in culture were performed at 3 hours and 24 hours. Cells were seeded (at 1×10^5 cells per well for 3 hours treatment or 5×10^4 cells per well for 24 hours treatment) on 1% (w/v) poly-L-lysine coated glass coverslips in 12 well plates and incubated overnight at 5% CO2 and 37° C.; poly-L-lysine coating of glass coverslips was employed to prevent the fluo-labelled PPL compounds adhering to the glass and causing background fluorescence. Cells were then washed with PBS, and incubated at 5% CO2 and 37° C. with the compound in the medium for 3 hours or 24 hours. The medium was subsequently removed and the cells washed twice with PBS, prior to fixation with 4% paraformaldehyde for 7 minutes, and then fixation was stopped with 50 mM ammonium chloride for 10 minutes. Cells were subsequently washed twice with PBS, and coverslips were mounted (with the cells facing downwards) onto a glass slide with vectashield, and the edges sealed with clear nail varnish to prevent drying. Fluorescence was detected by fluorescence microscopy and/or confocal microscopy. […]
Fluorescently-tagged compounds were used as noted above and intracellular fluorescence recorded as a measure of penetration.

Substance | melanin synthesis by melanoma cells, potency compared with αMSH [1] | penetration into mouse skin ex vivo [2] | penetration into pig skin ex vivo [3] | penetration into human skin ex vivo [4] | darkening of the cell pellet induced by αMSH [5] | penetration into B16F10 cells (intracellular fluorescence) (B16F10 cells)
Fluo-Ahx-SYSMEHFRWGKPV-NH2 [Fluo-MSH] | stimulated melanin synthesis by melanoma cells with similar potency to αMSH | did not penetrate into skin (except on a single occasion in mouse skin) | did not penetrate into skin | did not penetrate into skin | – | –
TyrPNA: 15 mer antisense peptide nucleic acid (GAA CAT TTT CTC CTT; SEQ. ID no. 1) targeting murine tyrosinase, modified as in FIG. 7 (antisense GAACATTTTCTCCTT; all peptide nucleic acid (PNA); further chemistry not fully specified) [15 mer antisense peptide nucleic acid (GAA CAT TTT CTC CTT; ID no] | – | – | – | – | did not prevent the increased production of melanin | –
TyrPNA-fluo: fluorescein-labelled TyrPNA, FIG. 8 (GAACATTTTCTCCTT; all peptide nucleic acid (PNA); further chemistry not fully specified) | – | – | – | did not penetrate into skin | – | did not penetrate into B16F10 cells
